# Reference: patent US12448369B2 (Edgewise Therapeutics, Inc., priority 2023, dated 2025)
# How the values were obtained:
# [1] = tested on: Rabbit Psoas myofibrils (skeletal myosin ATPase); assay: Myofibril ATPase assay, rabbit psoas (skeletal) myofibrils; format: biochemical
# Protocol: (§1) Example 1. Myofibril ATPase Assay
# (§2) Myofibril ATPase assays are known in the art to be useful in evaluating small molecules for the treatment of HCM and other cardiac indications. Myosin ATPase activity is assessed by using a coupled reaction system, in which ADP generated by the myosin ATPase function is coupled to the disappearance of NADH through the pyruvate kinase/lactate dehydrogenase (PK-LDH) system. ATPase activity produces ADP, which is used as a substrate for PK to produce pyruvate and regenerate ATP. The pyruvate is then used as a substrate by LDH to oxidize NADH to NAD+. The rate of the reaction is monitored through the time-dependent disappearance of NADH using absorbance at 340 nm, which, when the couple system is in stoichiometric excess, is directly correlated to the ATPase activity of the myosin. Inhibition of ATPase activity by the assayed compounds is indicated by a reduced rate of NADH loss, relative to vehicle-treated controls, over the experimental time window. Activation of ATPase activity by the assayed compounds is indicated by an increased rate of NADH loss, relative to vehicle-treated controls, over the experimental time window. Rabbit Psoas, Porcine atria, and Porcine ventricle are the primary sources of myofibril material.
# (§3) Materials: The following stock solutions and reagents were used in the Myofibril ATPase Assay:
# (§4) Stock Solutions of pCa buffer. Combine PIPES, CaCl2, and EGTA solutions with water. Adjust pH to 7.0 and bring final volume to 100 mL.
# (§5) Buffer A & Buffer B. Prepare buffers A and B according to the table below.
# (§6) Myofibril ATPase Assay Procedure: BSA, ATP, NADH, PEP, and DTT solutions were thawed at room temperature, then transferred to ice. Pellet-frozen myofibrils were transferred with approximately twice the required volume into a sufficiently large tube and capped. Myofibrils were thawed by rolling in a water bath for approximately 15 min at room temperature and cooled on ice. Buffers A and B were prepared by adjusting volumes as necessary for required number of wells and stored on ice. 0.5 μL of the compounds to be assayed were added into wells. 25 μL of Buffer A was dispensed into the wells, followed by 25 μL of Buffer B. The wells were measured for absorbance at 340 nm, using a kinetic protocol in which the wells are read every 1.5-2 min for 75 min. Assay data analysis was performed using a python script that filtered the raw data to retain those points falling between a starting and ending time and between a maximum and minimum absorbance, then used the filtered time-domain 340 nm absorbance data in each well to calculate a slope via linear regression analysis in units of mAU/min. Compound slopes were normalized between 100% and 0% activity, where 100% represented the slope of wells containing only compound vehicle, and fit to a 4-parameter logistic model. In addition to the fit parameters, the EC25% values were calculated, relative to the 100% normalized value. Additionally, the Y125 values were calculated for compounds that increased myosin ATP-ase activity. Fit parameters, calculated effective concentrations, filtered raw data, and calculated slopes were exported, in addition to compound-specific graphs of normalized ATPase activity versus concentration in μM. Each value reported in Table 5, Table 6, and Table 7 is either a Y75 value or a Y125 value. Values without a double cross sign, ‡, are Y75 values, which reflect the concentration required to reduce myosin ATP-ase activity by 25% (e.g., Y-axis activity value is 75% of initial value), relative to myosin ATP-ase activity in the absence of exogenous compound.
# Skeletal Myofibril Isolation:
# (§7) Myofibrils from various animals and tissue types were acquired from a variety of sources: rabbit psoas muscle was purchased from Pel-Freez Biologicals (Rogers, AR) and porcine cardiac muscle was purchased from Exemplar Genetics. All myofibrils were prepared using a method based upon those described in Herrmann et al. (1993) and summarized here. […]
# [2] = tested on: Porcine atria myofibrils (atrial myosin ATPase); assay: Myofibril ATPase assay, porcine atria myofibrils; format: biochemical
# Protocol: as §1, §2, §3, §4, §5, §6, §7
# [3] = target: T1, Porcine ventricle myofibrils (ventricular myosin ATPase) (Sus scrofa, UniProt P79293); assay: Myofibril ATPase assay, porcine ventricle myofibrils; format: biochemical, porcine (Yucatan minipigs)
# T1 construct: Myofibrils from porcine cardiac muscle was isolated from the left ventricle of Yucatan minipigs; tissue Exemplar Genetics; host or cells: left ventricle of Yucatan minipigs, myofibrils prepared in house
# Protocol: as §1, §2, §3, §4, §5, §6
# Cardiac Myofibril Isolation:
# Myofibrils from porcine cardiac muscle was isolated from the left ventricle of Yucatan minipigs. Myofibrils were prepared using a method based upon those described in Herrmann et al. (1993) and summarized here. […]
# [4] = rabbit psoas myofibrils, Y75 value
# [5] = porcine atria myofibrils, Y75 value (75% activity relative to no compound)
# [6] = porcine ventricle myofibrils, Y75 value
# [7] = Y75 value (no ‡ mark), rabbit psoas myofibrils
# [8] = Y75 value (no ‡ mark), porcine atria myofibrils
# [9] = Y75 value (no ‡ mark), porcine ventricle myofibrils
# T1 sequence (P79293 whole entry): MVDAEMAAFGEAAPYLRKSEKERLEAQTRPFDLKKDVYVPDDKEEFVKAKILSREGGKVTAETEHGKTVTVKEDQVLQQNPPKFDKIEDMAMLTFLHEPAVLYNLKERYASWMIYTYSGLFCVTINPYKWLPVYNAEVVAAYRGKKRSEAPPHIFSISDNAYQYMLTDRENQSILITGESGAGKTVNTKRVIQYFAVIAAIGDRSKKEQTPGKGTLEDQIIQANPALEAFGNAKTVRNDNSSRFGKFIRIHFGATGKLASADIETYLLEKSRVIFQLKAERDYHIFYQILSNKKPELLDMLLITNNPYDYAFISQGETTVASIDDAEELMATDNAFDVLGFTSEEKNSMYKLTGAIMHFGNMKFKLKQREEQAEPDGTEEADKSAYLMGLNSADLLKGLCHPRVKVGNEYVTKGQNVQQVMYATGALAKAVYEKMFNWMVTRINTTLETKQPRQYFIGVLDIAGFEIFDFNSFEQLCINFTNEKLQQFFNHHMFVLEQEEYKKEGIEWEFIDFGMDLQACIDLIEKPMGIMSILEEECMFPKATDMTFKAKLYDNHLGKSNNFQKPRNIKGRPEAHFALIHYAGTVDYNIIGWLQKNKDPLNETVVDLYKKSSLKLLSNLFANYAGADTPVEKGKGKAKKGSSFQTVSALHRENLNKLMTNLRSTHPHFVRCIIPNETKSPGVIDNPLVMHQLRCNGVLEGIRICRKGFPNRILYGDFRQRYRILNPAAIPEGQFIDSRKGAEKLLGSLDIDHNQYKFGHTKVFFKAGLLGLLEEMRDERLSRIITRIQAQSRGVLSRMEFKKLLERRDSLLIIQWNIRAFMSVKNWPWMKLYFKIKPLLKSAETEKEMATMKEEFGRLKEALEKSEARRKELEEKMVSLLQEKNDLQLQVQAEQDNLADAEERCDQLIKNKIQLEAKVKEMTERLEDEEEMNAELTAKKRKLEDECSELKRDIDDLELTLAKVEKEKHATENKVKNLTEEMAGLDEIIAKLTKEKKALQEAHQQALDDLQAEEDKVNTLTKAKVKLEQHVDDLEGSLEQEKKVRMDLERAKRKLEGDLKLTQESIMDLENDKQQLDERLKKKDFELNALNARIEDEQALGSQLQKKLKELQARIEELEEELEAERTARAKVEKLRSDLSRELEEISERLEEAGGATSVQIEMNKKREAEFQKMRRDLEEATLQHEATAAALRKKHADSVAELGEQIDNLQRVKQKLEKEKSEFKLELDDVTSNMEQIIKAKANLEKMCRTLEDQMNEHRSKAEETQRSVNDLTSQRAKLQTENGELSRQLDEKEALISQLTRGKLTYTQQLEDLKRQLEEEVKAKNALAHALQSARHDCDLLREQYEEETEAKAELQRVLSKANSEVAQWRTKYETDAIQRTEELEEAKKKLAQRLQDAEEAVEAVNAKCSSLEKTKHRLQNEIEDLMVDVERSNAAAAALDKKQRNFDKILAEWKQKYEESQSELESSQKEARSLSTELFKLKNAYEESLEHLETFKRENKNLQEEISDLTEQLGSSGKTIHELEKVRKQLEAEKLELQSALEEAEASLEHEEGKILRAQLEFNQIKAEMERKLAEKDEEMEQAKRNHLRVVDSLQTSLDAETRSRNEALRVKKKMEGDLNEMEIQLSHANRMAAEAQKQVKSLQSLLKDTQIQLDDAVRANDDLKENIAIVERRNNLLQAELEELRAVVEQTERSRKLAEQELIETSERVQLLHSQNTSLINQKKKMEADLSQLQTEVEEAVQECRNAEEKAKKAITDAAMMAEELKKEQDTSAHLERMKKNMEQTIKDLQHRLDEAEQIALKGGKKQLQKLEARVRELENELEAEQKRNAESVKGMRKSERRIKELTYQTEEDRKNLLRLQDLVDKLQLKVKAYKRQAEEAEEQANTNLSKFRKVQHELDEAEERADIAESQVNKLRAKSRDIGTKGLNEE
Compound,"Skeletal EC25 [1, 4] [nM]","Atrial EC25 [2, 5] [µM]","Ventricular EC25 [3, 6] [nM]","Skeletal EC25 [1, 7] [nM]","Atrial EC25 [2, 8] [µM]","Ventricular EC25 [3, 9] [nM]",further results
Cc1c(CC(=O)N[C@@H](C)c2ccc(C#N)cn2)c(=O)[nH]c2ccnc(C#N)c12 [compound 158],60,0.43,1800,–,–,–,–
"Cc1c(C2(C(=O)N[C@H](C)c3ncc(C#N)cc3F)CC2)c(=O)[nH]c2ccc(F)c(C(F)(F)F)c12 (single isomer, unassigned) [compound 4801]",–,–,–,280,0.28,100000,–
"Cc1c(CC(=O)N[C@H](C)c2ncc(C#N)cn2)c(=O)[nH]c2cccc(F)c12 (single isomer, unassigned) [compound 2041]",–,–,–,100000,1.18,1500,–
Cc1c(CC(=O)N[C@@H](C)c2ccc(F)cc2F)c(=O)[nH]c2ccnc(Nc3ccccc3)c12 [compound 278],2730,17.26,100000,–,–,–,–
C[C@H](NC(=O)Cc1cc2c(C#N)nccc2[nH]c1=O)c1ccc(C#N)cn1 [compound 473],300,1.44,6630,–,–,–,–
"C[C@H](NC(=O)Cc1cc2c(F)c(F)ccc2[nH]c1=O)c1cnc(C#N)cn1 (single isomer, unassigned) [compound 12]",–,–,–,30,0.03,110,–
Cc1c(CC(=O)N[C@@H](C)c2ccc(F)cc2F)c(=O)[nH]c2ccnc(Cl)c12 [compound 402],20,0.04,190,–,–,–,–
Cc1c(CC(=O)N[C@H](C)c2ccc(F)cn2)c(=O)[nH]c2cccc(F)c12 [compound 43],–,–,–,14830,100.00,100000,–
Cc1c(CC(=O)N[C@@H](C)c2ccc(F)cc2F)c(=O)[nH]c2ccnc(C(F)(F)F)c12 [compound 377],10,0.06,290,–,–,–,–
C[C@H](NC(=O)Cc1cc2c(C(F)(F)F)nccc2[nH]c1=O)c1ccc(F)cc1F [compound 435],380,32.52,19100,–,–,–,–
C[C@H](NC(=O)Cc1c(C2CC2)c2cc(C#N)ccc2[nH]c1=O)c1ncc(C#N)cc1F [compound 1152],–,–,–,3820,59.91,7780,–
"C[C@H](NC(=O)C(F)(F)c1cc2c(F)c(F)ccc2[nH]c1=O)c1nccc(C#N)n1 (single isomer, unassigned) [compound 2562]",–,–,–,280,0.15,750,–
"O=C(Cc1cc2c(F)c(F)ccc2[nH]c1=O)N[C@@H]1COc2ncccc21 (single isomer, unassigned) [compound 63]",–,–,–,1550,0.42,62720,–
Cc1cc(C#N)ncc1[C@H](C)NC(=O)Cc1c(C)c2c(C)c(F)ccc2[nH]c1=O [compound 1045],–,–,–,440,1.5,1700,–
"Cc1nc(C#N)cnc1[C@H](C)NC(=O)C(F)(F)c1c(C)c2c(C)nccc2[nH]c1=O (single isomer, unassigned) [compound 3505]",4700,1.90,13000,–,–,–,–
"Cc1c(CC(=O)N[C@@H](C)c2ncc(F)cc2F)c(=O)[nH]c2ccc(C#N)nc12 (single isomer, unassigned) [compound 250]",16640,2.60,80590,–,–,–,–
"C[C@@H](NC(=O)Cc1c(C#N)c2cc(F)c(F)cc2[nH]c1=O)c1ccc(C#N)cn1 (single isomer, unassigned) [compound 2047]",–,–,–,30480,25.33,47780,–
"Cc1c(C2(C(=O)N[C@@H](C)c3cc(C#N)ccn3)CC2)c(=O)[nH]c2ccc(F)c(F)c12 (single isomer, unassigned) [compound 2540]",–,–,–,960,–,100000,"Atrial EC25 ([2]; ‡ Y125 value, not a Y75 value (125% activity relative to no compound), porcine atria myofibrils): 100.00‡ μM"
Cc1nnccc1C(C)NC(=O)Cc1cc2cc(F)c(F)cc2[nH]c1=O (stereo not drawn) [compound 2073],–,–,–,100000,100.00,100000,–
Cc1c(CC(=O)N[C@@H](C)c2ccc(F)cc2F)c(=O)[nH]c2ccccc12 [compound 135],–,–,–,30,0.10,400,–
"CC(NC(=O)Cc1cc2c(F)c(F)ccc2[nH]c1=O)c1nc(C#N)cs1 (single isomer, unassigned) [compound 4009, N-(1-(4-cyanothiazol-2-yl)ethyl)-2-(5,6-difluoro-2-oxo-1,2-dihydroquinolin-3-yl)acetamide]",–,–,–,–,–,–,"Skeletal EC25 ([1]; Y75 value: concentration required to reduce myosin ATP-ase activity by 25%, Rabbit Psoas Prep pCa 25 GEOM_MEAN): 1490 nM; Atrial EC25 ([2]; Y75 value: concentration required to reduce myosin ATP-ase activity by 25%, Porcine Atria Prep pCa 25 GEOM_MEAN): 2.28 µM; Ventricular EC25 ([3]; Y75 value: concentration required to reduce myosin ATP-ase activity by 25%, Porcine Ventricle Prep pCa 25 GEOM_MEAN): 910 nM"
"Cc1c(CC(=O)N[C@H](CO)c2ccc(F)cc2F)c(=O)[nH]c2cccc(C#N)c12 (single isomer, unassigned) [compound 89]",–,–,–,40,0.05,320,–
"Cc1c(C(F)(F)C(=O)N[C@@H](C)c2ncc(C#N)cn2)c(=O)[nH]c2cccc(C#N)c12 (single isomer, unassigned) [compound 4839]",–,–,–,130,1.67,1850,–
"Cc1nccc2[nH]c(=O)c([C@@H](C)C(=O)N[C@H](C)c3ccc(C#N)cc3F)c(C)c12 (single isomer, unassigned) [compound 183]",750,0.33,6370,–,–,–,–
